One may read the IC50 as the concentration at which inhibition is half-maximal. Read a low IC50 as inhibition by little substance.

From US10899741B2, “3,4-bipyridyl pyrazole derivative, and preparation method therefor and medical application thereof” (Jiangsu Hengrui Medicine Co., Ltd., priority 2016, dated 2021) come the findings set out here.

One data set has as its system NIH3T3 cell. The data set is described as follows: Inhibition of NIH3T3 cell proliferation (CellTiter-Glo). It counts as cell-based. The following applies: NIH3T3, 72 hours, 0.5% FBS; for IC50: Mus musculus. As to the method:
The inhibition effect of the compounds of the present invention on NIH3T3 cell proliferation was determined by the following in vitro test.
The inhibition effect of the compounds of the present invention on NIH3T3 cell proliferation was determined by the following experimental method:
On a 96-well white plate with transparent bottom (3903, Corning), 100 μL of NIH3T3 cell (GNM6, Cell Bank of Typical Culture Collection Committee of Chinese Academy of Sciences) was seeded in a DMEM medium containing 10% FBS (SH1-30243.01, GE) in each well. The seeding density is 2000 cells/well. The cells were incubated overnight at 37° C., in 5% CO2. After overnight incubation, each well was replaced with 90 μL of DMEM medium containing 0.5%0 FBS. 10 μl of a 3-fold gradient dilution of the compounds with DMEM medium containing 0.5% FBS was then added, and the plate was incubated for 72 hours in a cell incubator at 37° C., in 5% CO2. Finally, 50 μL of CellTiter-Glo (G7573, Promega) was added to each well. After incubation for 10 minutes at room temperature, the chemiluminescence signal values were measured with a Victor 3 microplate reader (PerkinElmer). The IC50 values of the compounds were calculated using Graphpad Prism software based on each concentration of the compound and the corresponding signal value thereof.
On the technique in general: In ATP-based viability assays light output follows the ATP content of the culture.

Data set [1] relates to Smad signaling pathway of TGFβRI. The data set is described as follows: Inhibition of Smad signaling pathway of TGFβRI (3TP-lux luciferase reporter in HepG2 cells). Type of data set: cell-based. The following applies: HepG2, 3TP-lux plasmid, 18 hours; for IC50: Homo sapiens. The procedure: The inhibition effect of the compounds of the present invention on Smad signaling pathway of TGFβRI was determined by the following in vitro test.
The inhibition effect of the compounds of the present invention on Smad signaling pathway of TGFβRI was determined by the following experimental method:
On a 96-well plate, 100 μL of HepG2 cell (TCHu 72, Cell Bank of Typical Culture Collection Committee of Chinese Academy of Sciences) was seeded on an EMEM medium containing 10% FBS (42360-099, Gibco) in each well. The seeding density is 2.5×10^4 cells/well. The cells were incubated overnight at 37° C., in 5% CO2. Each well was replaced with fresh EMEM medium containing 10% FBS. 0.1 μg of 3TP-lux plasmid (11767, Biovector Science Lab, Inc.) was transfected in each well. The cells were further incubated for 24 hours at 37° C., in 5% CO2. Each well was replaced with 90 μL of EMEM medium containing 0.5% FBS, then the cells were starved for 6 hours. The compounds were formulated as a 20 mM stock solution, which was diluted in gradient to a 400× concentration with 100% DMSO, and further 40-fold diluted with EMEM containing 0.5% FBS. The cell culture plate was taken out, then 10 μl of diluted compound or control (0.25% DMSO) was added to each well respectively. The plate was shaken gently, then incubated for 18 hours in an incubator at 37° C., in 5% CO2. Finally, 100 μl of detection reagent ONE-Glo™ Luciferase Assay (E6110, Promega) was added to each well, and the plate was placed in dark at room temperature for 10 minutes. The chemiluminescence signal values were measured with a Victor 3.0 (PerkinElmer). The IC50 values of the compounds were calculated using Graphpad Prism software based on each concentration of the compound and the corresponding signal value thereof.
(In general: Reporter assays use an easily measured gene product as a stand-in for the process of interest.)

The nature of data set [2]: Toxicity assay, repeated intragastrical administration to SD rats for 7 days. Type of data set: in vivo. The conditions noted are these: 30 and 100 mg/kg qd. As to the method:
Evaluation of the toxicity of TGFβ inhibitor Compound 1 repeatedly intragastrically administered to SD rats for 7 days.
Twenty six SPF grade SD rats (approximately 180˜200 g, 6-7 weeks old, half male and half female) were purchased from Shanghai Jiesijie Laboratory Animal Co., Ltd.
Feeding conditions: SPF grade, animals were housed in plastic transparent rat cages, and 2-3 rats per cage. Room temperature: 20-26° C., relative humidity: 40-70%. 12 hours light/12 hours dark were alternated. The rats had free access to pellet feed for rats. The rats had free access to high-temperature sterilized water via drinking bottle.
The animals were divided randomly into 5 groups, i.e. solvent control group, compound 1—30 mg/kg group, compound 1—100 mg/kg group, and the corresponding toxicokinetics groups. There were 6 rats in solvent control group, compound 1—30 mg/kg group and compound 1—100 mg/kg group, and there were 4 rats in each corresponding toxicokinetics groups, half male and half female.
The dose of the test compound in the 7-day toxicity assay in rats was 30 and 100 mg/kg (qd), respectively, and the administration was continued for 7 days. Administration route: intragastrical administration, administration dosage: 10 ml/kg, administration frequency and administration period: daily morning administration, continuous administration for 7 days.
The results of various indicators were entered into computer Excel and entered and processed by SPSS software package.
The clinical symptom, food intake and anatomical gross observation were not processed statistically, and only the observation data of the observation items in the protocol were listed. Indicators such as body weight, organ weight, and clinical examination were processed statistically using SPSS.

In the case of `Cc1cccc(-c2nn(C3CCC3)cc2-c2ccnc(-c3ccc(S(C)(=O)=O)cc3)c2)n1` [Example 1, 4-(1-Cyclobutyl-3-(6-methylpyridin-2-yl)-1H-pyrazol-4-yl)-2-(4-(methylsulfonyl)phenyl)pyridine], in the data set on NIH3T3 cell, half-maximal inhibition (IC50) was put at 88 nM and the “Maximum inhibition rate (%)” value is recorded as 105%. In data set [1], the “Maximum inhibition rate (%)” value is reported as 101% and the IC50 was determined as 77 nM. Besides, in data set [2] (7 days), the Blood biochemical indicators result was “No toxicological changes”; the “Coagulation function and urine indexes compared with the solvent control group” value is given as “no obvious abnormalities”; the Food intake entry is reported as “no obvious change”; the “Safety under the conditions of this assay” value is listed as “good safety”. Also, in data set [2] (7 days, intragastrical), the “Clinical observation of the animals during the administration” value is “no obvious abnormality”. Moreover, the “Body weight and body weight growth rate compared with the solvent control group” value in data set [2] (7 days, p>0.05) is given as “no significant difference”. Moreover, in data set [2] (after the last administration), the “Gross pathological anatomy (autopsy)” value is listed as “no obvious abnormalities”.
As for `Cc1cccc(-c2nn(C3CC3)cc2-c2ccnc(-c3ccc(S(C)(=O)=O)cc3)c2)n1` [Example 2, 4-(1-Cyclopropyl-3-(6-methylpyridin-2-yl)-1H-pyrazol-4-yl)-2-(4-(methylsulfonyl)phenyl)pyridine], in the data set on NIH3T3 cell, the IC50 was found to be 194 nM and the “Maximum inhibition rate (%)” value came to 107%. Further, in data set [1], the “Maximum inhibition rate (%)” value is given as 100% and inhibition was half-maximal at 174 nM (IC50).
